Experimental data: patent publication US4620014A, “2-furylbutyrolactones and methods for using same” (priority 1983, dated 1986)
Values joined by “and” are separate entries in the source; they are usually repeats but may differ in a detail not shown here. Equal entries are not always repeated.

Experiments:
[1] = tested on: spleen lymphocytes of C57BL/6 mice; assay: In vivo treatment, lymphocyte stimulation assay, C57BL/6 mice
Procedure: (§1) The purpose of this assay is to challenge lymphocytes in microcultures with one or more polyclonal mitogens at concentrations that will induce mitogenesis within 72 hours of stimulation.
(§2) In the mouse model, spleens are removed from different strains of mice and the spleen cells are teased free and suspended in RPMI-1640 tissue culture medium at a concentration of usually 1×10^7 ml. These cells are dispensed at a concentration of 5.0×10^5 cells per microculture well in a 96 well flat bottom 96 well tissue culture plate. All testing of the compounds of this invention or mitogens are done in replicates of 10. The cells are then treated with PHA, Con-A, specific antigens, or buffer only. If in vitro testing is done, varying concentrations of the compounds of this invention or buffer only are added to the cells as well. After treatment with the mitogens and/or compounds of this invention, the cells are incubated for 72 hours. The response of these cells to mitogens and/or the compounds of this invention is assessed using ^14 C-thymidine labeling on the fourth day at a concentration of 0.01 μCi/well. The labeled cells are harvested using a lymphocyte harvestor and placed onto fibrous paper discs. A scintillation cocktail is added to vials contaning the discs and the results are obtained using a LKB-liquid scintillation counter (Model 1216/Rackbeta II). The data is expressed as a ratio of the cpm of the mitogen stimulated group to the control (non-mitogen) treated group=lymphocyte stimulation index (LSI).
(§3) The lymphocyte stimulation assay may be performed directly on spleen cells obtained from various strains of mice not treated with the compounds of this invention or on lymphocytes obtained from […]. […] Alternatively, the mice may be treated in vivo with the compounds of this invention by intraperitoneal multi-dose schedules, followed by sacrifice and harvesting spleen lymphocytes. These cells are then tested for their response to polyclonal mitogens or specific antigens used to immunize the mice. In this sytem however, no additional compound is added to the in vitro lymphocyte stimulation assay system.
Two strains of mice, C57BL/6 and BDF1 are treated for seven days with i.p. administration of either 25, 50, 100, 200, or 400 mg/kg of Cpd. 1 or just buffer. This is followed on the eighth day by a lymphocyte stimulation assay.
A comparison is made of the lymphocyte response to C57BL/6 mice treated 4 days with i.p. administration of either 50, 100, 200, 400 or 800 mg/kg of Cpd. 1, 50, 100, 200, 400 or 800 mg/kg of ascorbic acid (AA), or just buffer. This is followed on the fifth day by a lymphocyte stimulation assay.
Two strains of mice, C57BL/6 and BALB/c, are treated 4 days with i.p. administration of either 50, 100, 200, or 400 mg/kg of Cpd. 1, or just buffer. This is followed on the fifth day by a lymphocyte stimulation assay.
C57BL/6 mice were treated with four daily i.p. doses of either 50, 100, 200, or 400 mg/kg of Cpd. 1 or just buffer. On the fifth day a lymphocyte stimulation assay was performed.
Mice of the C57BL/6 strain were tested with i.p. administration of either 100, 200, 400 or 600 mg/kg of Cpd. 1 or just buffer. This was followed by removal of spleens and treatment of lymphocytes therein with mitogens PHA and Con-A.
The compound of Example 2, Cpd. 2, was tested in vivo by using C57BL/6 mice and treating them with […] or just buffer for four consecutive days by the i.p. route. On the fifth day a lymphocyte stimulation assay was performed.

[2] = tested on: spleen lymphocytes from C57BL/6 mice; assay: In vitro lymphocyte stimulation assay, C57BL/6 spleen lymphocytes; format: cell-based, mouse
Procedure: as §1, §2, §3
An in vitro lymphocyte stimulation assay is performed directly on normal spleen lymphocytes removed from five normal C57BL/6 mice, using concentrations of Cpd. […] Following three days of incubation the assay is completed.
An in vitro lymphocyte stimulation assay was performed using spleen lymphocytes from normal C57BL/6 mice. The lymphocytes were treated with either 1, 5, 10, 50, or 100 μg/well of Cpd. 1 or buffer.
Cpd. 2 was tested using normal spleen lymphocytes from C57BL/6 mice. A lymphocyte stimulation assay was conducted using either 1, 5, 10, 50, or 100 μg/well […] or just buffer.
Spleen cells from C57BL/6 mice were treated, in vitro, with the crystallizing reagents, succinic acid and succinimide. Since these compounds are spontaneously released from the molecular complex in solution at a molar ratio of 2 moles of Cpds. 1, 2, or 3 per mole of the crystalline reagent, these reagents were treated in the lymphocyte stimulation assay at proper molar concentrations.
The compound of example 3, Cpd. 3, was used to treat C57BL/6 spleen lymphocytes in vitro. The lymphocytes were treated with either 1, 5, 10, 50, or 100 μg/well of Cpd. 3 or just buffer and then a lymphocyte stimulation assay was performed.

Cc1ccc(C2(O)C(=O)OC3C(O)COC32O)o1.Cc1ccc(C2(O)C(=O)OC3C(O)COC32O)o1.O=C1CCC(=O)O1 (stereo not drawn) [Cpd. 1]
T-lymphocyte proliferation, PHA ([1]; 200 mg/kg i.p., 7 days): stimulation of T-lymphocyte proliferation | response to PHA ([1]; 400 mg/kg compared to 200 mg/kg, four daily doses): decrease in the response to PHA | PHA response ([1]; 400 mg/kg i.p., 7 days): strong suppression of the PHA response | Con-A response ([1]; 400 mg/kg i.p., 7 days, compared to 200 mg/kg): suppression of the Con-A response | DNA synthesis of spleen cell lymphocytes ([1]; 400 mg/kg, compared to 200 mg/kg, 4 days): suppress DNA synthesis | evidence of toxicity ([1]; 600 mg/kg i.p., five day administration): no evidence of toxicity | stimulation of lymphocytes ([1]; 600 mg/kg, compared to 100 to 400 mg/kg, five days): less stimulation | lymphocyte DNA synthesis, PHA and Con-A ([1]; 50, 100 and 200 mg/kg i.p., 4 days): tend to stimulate lymphocyte DNA synthesis | Con-A response ([1]; 50, 100 and 200 mg/kg i.p., 7 days): increased | response to polyclonal mitogens ([1]; 50-400 mg/kg i.p., four daily doses): Stimulation of the response to polyclonal mitogens | effect, Con-A ([1]; 50 to 200 mg/kg i.p., 4 days): significant stimulatory effect | lymphocyte DNA synthesis, PHA ([1]; 100 and 200 mg/kg i.p., 4 days): tend to stimulate lymphocyte DNA synthesis | Con-A and PHA treated lymphocytes ([1]; 100 to 400 mg/kg, five days): significant stimulation | DNA synthesis of spleen lymphocytes, PHA ([1]; 400 to 800 mg/kg i.p., 4 days): suppress DNA synthesis of spleen lymphocytes | effect, Con-A ([1]; 400 to 800 mg/kg i.p., 4 days): significant anti-proliferative effect | Lymphocyte Stimulation Index, Con-A ([2]; 1 μg/well in vitro): 178 and 123 | Lymphocyte Stimulation Index, PHA ([2]; 1 μg/well in vitro): 53.8 and 80.4 | Lymphocyte Stimulation Index, Con-A ([2]; 5 μg/well in vitro): 162 | Lymphocyte Stimulation Index, Control (no mitogen) ([2]; 5 μg/well in vitro): 1.8 | Lymphocyte Stimulation Index, PHA ([2]; 5 μg/well in vitro): 157 | mitogenesis, PHA and Con-A ([2]; 10 μg/well (Example 12)): significant suppression | Lymphocyte Stimulation Index, Con-A ([2]; 50 μg/well in vitro): 3.78 | Lymphocyte Stimulation Index, Control (no mitogen) ([2]; 50 μg/well in vitro): .20 | Lymphocyte Stimulation Index, PHA ([2]; 50 μg/well in vitro): .261 | Lymphocyte Stimulation Index, Con-A ([2]; 100 μg/well in vitro): .308 | Lymphocyte Stimulation Index, Control (no mitogen) ([2]; 100 μg/well in vitro): .20 | Lymphocyte Stimulation Index, PHA ([2]; 100 μg/well in vitro): .292 | mitogenesis, PHA and Con-A ([2]; 0.001-1.0 μg/well): significant stimulation of mitogenesis | response to PHA and Con-A ([2]; 5 and 10 μg/well): significant increases | lymphocyte response to the mitogens ([2]; 50 and 100 μg/well): significant decreases | Lymphocyte Stimulation Index, Con-A ([2]; .001 μg/well in vitro): 198 | Lymphocyte Stimulation Index, Control (no mitogen) ([2]; .001 μg/well in vitro): 3.8 | Lymphocyte Stimulation Index, PHA ([2]; .001 μg/well in vitro): 80.4 | Lymphocyte Stimulation Index, Con-A ([2]; .01 μg/well in vitro): 198 | Lymphocyte Stimulation Index, Control (no mitogen) ([2]; .01 μg/well in vitro): 3.2 | Lymphocyte Stimulation Index, PHA ([2]; .01 μg/well in vitro): 87.5 | Lymphocyte Stimulation Index, Con-A ([2]; .1 μg/well in vitro): 198 | Lymphocyte Stimulation Index, Control (no mitogen) ([2]; .1 μg/well in vitro): 3.2 | Lymphocyte Stimulation Index, PHA ([2]; .1 μg/well in vitro): 83.1
